{
  "source": "paper PMC6302903",
  "about": "“Protein and Chemical Determinants of BL-1249 Action and Selectivity for K2P Channels” (ACS Chemical Neuroscience, 2018)",
  "key": {"K2P3.1(TASK-1)": {"biological_target": "T1, K2P3.1(TASK-1) (Mus musculus, UniProt O35111)", "T1 construct": "expressed in transfected cells; host or cells: Xenopus laevis oocytes injected with mRNA made from pGEMHE/pMO", "assay": "TEVC of K2P3.1(TASK-1) in Xenopus oocytes", "format": "cell-based", "details": "concentrations up to the solubility limit (∼80 μM)", "protocol": "(§1) BL-1249 activates K2P2.1(TREK-1)[18],[40] and K2P10.1(TREK-2),[7] but its effects on other K2P channels have not been characterized. […] In order to test if the original 10 μM assay had missed BL-1249 effects in other K2P channels, we tested concentrations of BL-1249 up to the solubility limit (∼80 μM) against the other K2P subfamily representatives. […]\n(§2) Xenopus laevis oocytes were harvested in accordance with UCSF IACUC protocol AN129690 and digested in calcium-free ND-96 (96 mM NaCl, 2 mM KCl, 3.8 mM MgCl2) immediately following harvest, as previously described.[6],[10] […] Defolliculated stage V–VI oocytes were injected with 0.2–6.0 ng of mRNA in 50 nL, and currents were recorded 24–48 h after injection. mRNA was synthesized from plasmid DNA using mMessage mMachine Kit (T7 promoter, Ambion, Life Technologies) and purified using RNEasy Kit (Qiagen). […] Once stabilized basal currents were recorded, compounds were perfused at various concentrations in standard ND96 and currents were allowed to increase to stabilization before recording final current. Fold activation upon compound application is expressed as I/I0 (0 mV), derived from the current at 0 mV in the presence of compound divided by the basal current at 0 mV in standard ND96 without compound. Data were analyzed and plotted using Graphpad Prism Version 5 (GraphPad Software, San Diego California USA, www.graphpad.com). […]"}, "K2P18.1(TRESK)": {"test_system": "K2P18.1(TRESK)", "design": "method as in PMID 27641472", "details": "cited from earlier work"}, "K2P1.1(TWIK-1)": {"biological_target": "T2, K2P1.1(TWIK-1) (Mus musculus, UniProt O08581)", "T2 construct": "expressed in transfected cells; host or cells: Xenopus laevis oocytes injected with mRNA made from pGEMHE/pMO", "assay": "TEVC of K2P1.1(TWIK-1) in Xenopus oocytes", "format": "cell-based", "details": "concentrations up to the solubility limit (∼80 μM)", "protocol": "as §1, §2"}, "K2P2.1(TREK-1) W275S": {"biological_target": "T3, K2P2.1(TREK-1) W275S (Mus musculus, UniProt P97438, W290S)", "T3 construct": "expressed in transfected cells; host or cells: Xenopus laevis oocytes, mRNA injected", "T3 sequence (P97438 1-411 isoform P97438-2 W275S)": "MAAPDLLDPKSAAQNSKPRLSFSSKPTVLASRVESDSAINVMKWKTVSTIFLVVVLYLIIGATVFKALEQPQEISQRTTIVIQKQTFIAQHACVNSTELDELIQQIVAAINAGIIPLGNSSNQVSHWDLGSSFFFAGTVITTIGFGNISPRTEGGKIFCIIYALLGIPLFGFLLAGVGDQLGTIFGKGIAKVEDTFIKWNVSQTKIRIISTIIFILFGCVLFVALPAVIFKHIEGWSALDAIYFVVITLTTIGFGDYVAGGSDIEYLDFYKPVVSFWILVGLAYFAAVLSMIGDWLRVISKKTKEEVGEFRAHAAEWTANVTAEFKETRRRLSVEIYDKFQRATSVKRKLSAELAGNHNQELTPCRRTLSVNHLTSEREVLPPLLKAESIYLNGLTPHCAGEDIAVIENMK", "assay": "TEVC of C-type gate activating mutant W275S", "format": "cell-based", "details": "Xenopus oocytes", "from_the_text": "Diverse types of physical and chemical stimuli activate K2P2.1(TREK-1) by stabilizing the C-type gate and switching the channel into a “leak” mode that is characterized by a loss of outward rectification of the potassium current.[6],[8] Accordingly, we used inside-out patch clamp experiments of K2P2.1(TREK-1) expressed in HEK293 cells to test whether BL-1249 acts on the C-type gate. […] Together with previous single point concentration studies showing the insensitivity of K2P2.1(TREK-1) W275S in mammalian cells,[40] our data provide definitive evidence that BL-1249 activates K2P2.1(TREK-1) by stimulating the C-type gate. […]\nas §2, with “current.” for “current. Fold activation upon compound application is expressed as I/I0 (0 mV), derived from the current at 0 mV in the presence of compound divided by the basal current at 0 mV in standard ND96 without compound. Data were analyzed and plotted using Graphpad Prism Version 5 (GraphPad Software, San Diego California USA, www.graphpad.com).”"}, "K2P13.1(THIK-1)": {"biological_target": "T4, K2P13.1(THIK-1) (Mus musculus, UniProt Q8R1P5)", "T4 construct": "expressed in transfected cells; host or cells: Xenopus laevis oocytes (mRNA injection, pGEMHE/pMO)", "T4 sequence (Q8R1P5 whole entry)": "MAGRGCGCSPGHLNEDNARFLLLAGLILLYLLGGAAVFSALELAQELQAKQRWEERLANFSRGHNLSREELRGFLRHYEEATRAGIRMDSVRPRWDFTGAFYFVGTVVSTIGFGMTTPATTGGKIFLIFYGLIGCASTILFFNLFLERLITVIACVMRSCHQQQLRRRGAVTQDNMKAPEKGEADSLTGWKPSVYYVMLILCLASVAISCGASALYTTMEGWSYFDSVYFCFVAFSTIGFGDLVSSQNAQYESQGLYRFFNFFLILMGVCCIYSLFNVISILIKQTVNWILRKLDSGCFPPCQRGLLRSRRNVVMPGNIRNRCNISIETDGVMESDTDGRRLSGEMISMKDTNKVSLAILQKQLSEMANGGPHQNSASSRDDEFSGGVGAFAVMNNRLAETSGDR", "assay": "TEVC of K2P13.1(THIK-1) in Xenopus oocytes", "format": "cell-based", "details": "concentrations up to the solubility limit (∼80 μM)", "protocol": "as §1, §2"}},
  "data": [
    {"smiles": "c1ccc(-c2nnn[nH]2)c(Nc2cccc3c2CCCC3)c1", "note": "[BL-1249, (5,6,7,8-tetrahydro-naphthalen-1-yl)-[2-(1H-tetrazol-5-yl)-phenyl]-amine]", "values": [
      {"measurement": "activation of K2P3.1(TASK-1)", "setting": "K2P3.1(TASK-1)", "value": "failed to find evidence for activation"},
      {"measurement": "functional effect on K2P18.1(TRESK)", "setting": "K2P18.1(TRESK)", "value": "activator"},
      {"measurement": "activation of K2P1.1(TWIK-1)", "setting": "K2P1.1(TWIK-1)", "value": "failed to find evidence for activation"},
      {"measurement": "EC50", "setting": "K2P2.1(TREK-1) W275S", "value": "> 60", "unit": "µM"},
      {"measurement": "sensitivity of K2P2.1(TREK-1) W275S to compound", "setting": "K2P2.1(TREK-1) W275S", "value": "insensitive"},
      {"measurement": "activation of K2P13.1(THIK-1)", "setting": "K2P13.1(THIK-1)", "value": "failed to find evidence for activation"}
    ]}
  ]
}
